From US7635706B2, “5HT4-antagonistic 4-(aminomethyl)-piperidine benzamides” (Janssen Pharmaceutica NV, priority 2003, dated 2009)

Target: T1, h5-HT4b (Homo sapiens, UniProt Q13639)
T1 construct: expressed in transfected cells; host or cells: HEK 293 (clone 9), membrane preparation
Experiment: 5HT4 antagonism: [3H]GR113808 binding to membranes of h5-HT4b-HEK 293 clone 9 cells
Conditions: [3H]GR113808 0.1 nM, h5-HT4b-HEK 293 membranes, 30 min at 25° C.
Method: h5-HT4b-HEK 293 clone 9 cells were cultured in 150 mm Petri dishes and washed twice with cold PBS. The cells were then scraped from the plates and suspended in 50 mM Tris-HCl buffer, pH 7.4 and harvested by centrifugation at 23,500 rpm for 10 minutes. The pellet was resuspended in 5 mM Tris-HCl, pH 7.4 and homogenized with an Ultra Turrax homogenizer. The membranes were collected by centrifugation at 30,000 rpm for 20 min, resuspended in 50 mM Tris-HCl pH 7.4 and stored at −80° C. For the experiment, assay mixtures (0.5 ml) contained 50 μl of the tritiated ligand (5-HT4 antagonist [^3H]GR113808 0.1 nM) and 0.4 ml membrane preparation (15 μg protein/ml). 50 μl of 10% DMSO was added for total binding. 50 μl of 1 μM of (+)-trans-(1-butyl-3-hydroxy4-piperidinyl)methyl 8-amino-7-chloro-2,3-dihydro-1,4-benzodioxin-5-carboxylate (a proprietary 5HT4 agonist of Janssen Pharmaceutica) was added for determination of non-specific binding.
The [^3H]GR113808 assay buffer was 50 mM HEPES-NaOH, pH 7.4. The mixtures were incubated for 30 min at 25° C. The incubation was terminated by filtration over a Unifilter 96 GF/B presoaked in 0.1% polyethylenimine, followed by six washing steps with 50 mM HEPES-NaOH, pH 7.4.

T1 sequence (Q13639 whole entry): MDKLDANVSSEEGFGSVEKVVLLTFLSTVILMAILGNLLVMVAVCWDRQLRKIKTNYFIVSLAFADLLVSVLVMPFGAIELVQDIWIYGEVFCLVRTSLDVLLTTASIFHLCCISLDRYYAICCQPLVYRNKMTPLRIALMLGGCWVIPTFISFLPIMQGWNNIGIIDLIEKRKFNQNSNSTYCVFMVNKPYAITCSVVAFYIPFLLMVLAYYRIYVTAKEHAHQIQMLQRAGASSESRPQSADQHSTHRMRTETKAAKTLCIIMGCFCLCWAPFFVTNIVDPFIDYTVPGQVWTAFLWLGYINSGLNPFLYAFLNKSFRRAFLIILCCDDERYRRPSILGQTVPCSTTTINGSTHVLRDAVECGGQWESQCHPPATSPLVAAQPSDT

SMILES	IC50
CCCCN1CC[C@@H](CNC(=O)c2cc(Cl)c(Br)c3c2OCCCO3)[C@H](O)C1 [compound 22]	1.41 nM
COc1c(Cl)cc(C(=O)NC[C@@H]2CCN(CC3OCCO3)C[C@H]2OC)c2c1OCCCO2 [compound 66]	132 nM
COCCCN1CC[C@@H](CNC(=O)c2cc(Cl)c(Br)c3c2OCCCO3)[C@H](OC)C1 [compound 54]	4.9 nM
CNCCCN1CC[C@@H](CNC(=O)c2cc(Cl)c(OC)c3c2OCCCO3)[C@H](OC)C1 [compound 62]	490 nM
N#CCCCN1CC[C@@H](CNC(=O)c2cc(Cl)c(Br)c3c2OCCCO3)[C@H](O)C1 [compound 10]	3.02 nM
COCCCN1CC[C@@H](CNC(=O)c2ccc(OC)c3c2OCCCO3)[C@H](O)C1 [compound 110]	3.09 nM
O=C(NC[C@@H]1CCN(CCCO)C[C@H]1O)c1cc(Cl)c(Br)c2c1OCCCO2 [compound 24]	1.78 nM
O=C(NC[C@@H]1CCN(CCOCCO)C[C@H]1O)c1cc(Cl)c(Cl)c2c1OCCCO2 [compound 21]	3.89 nM
COCCCN1CC[C@@H](CNC(=O)c2ccc(OC)c3c2OCCCO3)[C@H](OC)C1 [compound 124]	24.5 nM
COCCCN1CC[C@@H](CNC(=O)c2ccc(F)c3c2OCCCO3)[C@H](O)C1 [compound 132]	2.24 nM
COc1c(Cl)cc(C(=O)NC[C@@H]2CCN(CCOCCO)C[C@H]2O)c2c1OCCCO2 [compound 23]	17.4 nM
O=C(NC[C@@H]1CCN(CCCCO)C[C@H]1O)c1ccc(F)c2c1OCCCO2 [compound 143]	1.17 nM
CNCCN1CC[C@@H](CNC(=O)c2cc(Cl)c(Br)c3c2OCCCO3)[C@H](O)C1 [compound 42]	27.5 nM
O=C(NC[C@@H]1CCN(CCOCCO)C[C@H]1O)c1cc(Cl)c(Br)c2c1OCCCO2 [compound 25]	3.09 nM
COc1ccc(C(=O)NC[C@@H]2CCN(CCCC#N)C[C@H]2O)c2c1OCCO2 [compound 138]	6.17 nM
COc1c(Cl)cc(C(=O)NC[C@@H]2CCN(CC3CCCO3)C[C@H]2OC)c2c1OCCO2 (stereo partly drawn) [compound 41]	16.2 nM
COc1c(Cl)cc(C(=O)NC[C@@H]2CCN(CCCO)C[C@H]2O)c2c1OCCO2 [compound 5]	5.5 nM
O=C(NC[C@@H]1CCNC[C@H]1O)c1cc(Cl)c(Br)c2c1OCCCO2 [compound 11]	5.89 nM
COc1ccc(C(=O)NC[C@H]2CCN(CCCC(N)=O)C[C@H]2O)c2c1OCCCO2 [compound 144]	282 nM

SMILES	IC50
Cc1ccc(C(=O)NC[C@@H]2CCN(CCCOc3ccc(S(N)(=O)=O)cc3)C[C@H]2O)c2c1OCCCO2 [compound 105]	0.603 nM
CNCCCCN1CC[C@@H](CNC(=O)c2cc(Cl)c(OC)c3c2OCCO3)[C@H](O)C1 [compound 43]	23.4 nM
COc1ccc(C(=O)NC[C@@H]2CCN(CCCO)C[C@H]2O)c2c1OCCCO2 [compound 99]	7.24 nM
COc1c(Cl)cc(C(=O)NC[C@@H]2CCN(CCCO)C[C@H]2O)c2c1OCCCO2 [compound 13]	5.37 nM
CC(C)n1ccn(CCN2CC[C@@H](CNC(=O)c3cc(Cl)c(Br)c4c3OCCCO4)[C@H](O)C2)c1=O [compound 91]	13.5 nM
COc1ccc(C(=O)NC[C@@H]2CCN(CCOCCO)C[C@H]2O)c2c1OCCCO2 [compound 127]	13.8 nM
O=C(NC[C@@H]1CCN(CCC2OCCO2)C[C@H]1O)c1cc(Cl)c(Cl)c2c1OCCCO2 [compound 88]	2.24 nM
COc1c(Cl)cc(C(=O)NC[C@@H]2CCN(CCCO)C[C@H]2OC)c2c1OCCO2 [compound 53]	20 nM
CNCCCCN1CC[C@@H](CNC(=O)c2ccc(OC)c3c2OCCO3)[C@H](O)C1 [compound 118]	6.76 nM
COc1c(Cl)cc(C(=O)NC[C@@H]2CCN(CCOCCO)C[C@H]2O)c2c1OCCO2 [compound 15]	9.55 nM
CO[C@@H]1CN(CCCC#N)CC[C@H]1CNC(=O)c1cc(Cl)c(Cl)c2c1OCCCO2 [compound 56]	3.89 nM
COc1ccc(C(=O)NC[C@@H]2CCN(CCC3OCCO3)C[C@H]2O)c2c1OCCCO2 [compound 101]	2.45 nM
COCCCN1CC[C@@H](CNC(=O)c2cc(Cl)c(OC)c3c2OCCCO3)[C@H](O)C1 [compound 14]	2.63 nM
CNCCCN1CC[C@@H](CNC(=O)c2cc(Cl)c(OC)c3c2OCCO3)[C@H](O)C1 [compound 44]	28.8 nM
CO[C@@H]1CN(CCOCCO)CC[C@H]1CNC(=O)c1cc(Cl)c(Br)c2c1OCCCO2 [compound 51]	5.13 nM
CO[C@@H]1CN(CC2CCCO2)CC[C@H]1CNC(=O)c1cc(Cl)c(Br)c2c1OCCCO2 (stereo partly drawn) [compound 50]	4.37 nM
CNCCCCN1CC[C@@H](CNC(=O)c2ccc(OC)c3c2OCCCO3)[C@H](O)C1 [compound 102]	6.46 nM
COc1ccc(C(=O)NC[C@@H]2CCN(CCCCNc3nccnc3C)C[C@H]2O)c2c1OCCCO2 [compound 130]	3.89 nM
COc1ccc(C(=O)NC[C@@H]2CCN(CCCNS(C)(=O)=O)C[C@H]2OC)c2c1OCCCO2 [compound 134]	0.912 nM

SMILES	IC50
Cc1ccc(C(=O)NC[C@@H]2CCNC[C@H]2O)c2c1OCCCO2 [compound 104]	28.2 nM
COc1c(Cl)cc(C(=O)NC[C@@H]2CCN(CC3OCCO3)C[C@H]2O)c2c1OCCO2 [compound 9]	7.94 nM
COc1ccc(C(=O)NC[C@@H]2CCN(CCCCO)C[C@H]2O)c2c1OCCCO2 [compound 121]	4.57 nM
CNCCCCN1CC[C@@H](CNC(=O)c2cc(Cl)c(Br)c3c2OCCCO3)[C@H](OC)C1 [compound 65]	4.47 nM
CCCCN1CC[C@H](CNC(=O)c2ccc(OC)c3c2OCCCO3)[C@H](O)C1 [compound 141]	214 nM
CO[C@@H]1CN(CCCC#N)CC[C@H]1CNC(=O)c1cc(Cl)c(Br)c2c1OCCCO2 [compound 28]	6.31 nM
CCCCN1CC[C@@H](CNC(=O)c2cc(Cl)c(OC)c3c2OCCO3)[C@H](OC)C1 [compound 77]	8.91 nM
CCCCN1CC[C@@H](CNC(=O)c2cc(Cl)c(Cl)c3c2OCCCO3)[C@H](OC)C1 [compound 81]	2.09 nM
COCCCN1CC[C@@H](CNC(=O)c2cc(Cl)c(OC)c3c2OCCCO3)[C@H](OC)C1 [compound 67]	22.4 nM
O=C(NC[C@@H]1CCN(CCCO)C[C@H]1O)c1cc(Cl)c(Cl)c2c1OCCCO2 [compound 19]	2.69 nM
CNCCN1CC[C@@H](CNC(=O)c2cc(Cl)c(Br)c3c2OCCCO3)[C@H](OC)C1 [compound 48]	57.5 nM
CNCCCCN1CC[C@@H](CNC(=O)c2ccc(C)c3c2OCCCO3)[C@H](O)C1 [compound 4]	6.92 nM
COc1ccc(C(=O)NC[C@@H]2CCNC[C@H]2O)c2c1OCCCO2 [compound 97]	56.2 nM
COc1c(Cl)cc(C(=O)NC[C@@H]2CCN(CCC3OCCO3)C[C@H]2OC)c2c1OCCO2 [compound 87]	30.9 nM
COc1ccc(C(=O)NCC2(O)CCN(CCCC(N)=O)CC2)c2c1OCCCO2 [compound 147]	501 nM
CO[C@@H]1CN(CCCO)CC[C@H]1CNC(=O)c1cc(Cl)c(Cl)c2c1OCCCO2 [compound 75]	3.09 nM
COCCCN1CC[C@@H](CNC(=O)c2cc(Cl)c(Cl)c3c2OCCCO3)[C@H](O)C1 [compound 37]	3.89 nM
Cc1ccc(C(=O)NC[C@@H]2CCN(CCCO)C[C@H]2O)c2c1OCCCO2 [compound 3]	1.7 nM
COc1c(Cl)cc(C(=O)NC[C@@H]2CCN(CCn3ccn(C(C)C)c3=O)C[C@H]2OC)c2c1OCCO2 [compound 70]	263 nM
